One block for each molecule: values may come before it.
What was measured:
[1] = biological target: T1, Glycogen synthase kinase-3 beta (Mus musculus, UniProt Q9WV60); assay: Inhibition of GSK-3 beta in mouse D3 cells assessed as induction of neuron specific marker beta3-tubulin by immunofluorescence method; type: cell-based
[2] = biological target: T1, Glycogen synthase kinase-3 beta; assay: Binding affinity to GSK-3 beta in mouse D3 cells; type: cell-based
[3] = biological target: Myc proto-oncogene protein/Transcription factor AP-1 (Gallus gallus, UniProt P01109+P18870); assay: Inhibition of Myc-Jun protein - protein interaction in chicken embryo fibroblasts assessed as inhibition of cell focus formation11
Chain of Myc proto-oncogene protein/Transcription factor AP-1 (P18870 whole entry): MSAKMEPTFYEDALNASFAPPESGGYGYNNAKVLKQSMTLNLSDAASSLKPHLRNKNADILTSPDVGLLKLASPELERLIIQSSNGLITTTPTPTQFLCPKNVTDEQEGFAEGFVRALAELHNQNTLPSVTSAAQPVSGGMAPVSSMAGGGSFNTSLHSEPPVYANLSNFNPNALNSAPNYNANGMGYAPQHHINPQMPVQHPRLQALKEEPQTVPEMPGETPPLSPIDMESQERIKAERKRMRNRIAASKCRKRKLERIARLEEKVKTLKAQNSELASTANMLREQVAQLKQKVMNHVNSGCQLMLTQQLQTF
Chain of Myc proto-oncogene protein/Transcription factor AP-1 (P01109 whole entry): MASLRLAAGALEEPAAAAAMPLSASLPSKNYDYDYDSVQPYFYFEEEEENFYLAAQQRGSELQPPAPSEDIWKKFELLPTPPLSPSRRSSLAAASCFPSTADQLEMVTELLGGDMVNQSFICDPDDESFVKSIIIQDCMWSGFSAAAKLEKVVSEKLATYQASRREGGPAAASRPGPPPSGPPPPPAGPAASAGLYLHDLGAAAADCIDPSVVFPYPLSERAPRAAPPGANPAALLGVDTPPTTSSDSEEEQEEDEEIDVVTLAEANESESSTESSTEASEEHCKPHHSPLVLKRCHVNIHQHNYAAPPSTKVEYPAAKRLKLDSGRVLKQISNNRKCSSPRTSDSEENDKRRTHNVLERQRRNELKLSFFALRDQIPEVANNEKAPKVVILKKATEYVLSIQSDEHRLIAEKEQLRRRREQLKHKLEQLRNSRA

[4] = biological target: T1, Glycogen synthase kinase-3 beta; assay: Inhibition of GSK-3 beta in mouse D3 cells assessed as induction of neuron specific marker neurofilament-M by immunofluorescence method; type: cell-based
[5] = biological target: T1, Glycogen synthase kinase-3 beta; assay: Inhibition of GSK-3 beta in mouse D3 cells; type: cell-based
[6] = biological target: T1, Glycogen synthase kinase-3 beta; assay: Inhibition of GSK-3 beta in mouse D3 cells assessed as induction of neuron specific marker microtubule-associated protein 2 by immunofluorescence method; type: cell-based
[7] = Induction of cardiomyogenesis in mouse D3 cells assessed as induction of cadiomyocyte specific marker MEF2 by immunofluorescence method; type: functional, cell-based
[8] = Induction of cardiomyogenesis in mouse D3 cells assessed as induction of cadiomyocyte specific marker myosin heavy chain by immunofluorescence method; type: functional, cell-based
[9] = biological target: Histone deacetylase; assay: Inhibition of HDAC in human A549 cells assessed as induction of histone acetylation by fluorescence microscopy; type: cell-based
[10] = system: C3H 10T1/2; assay: Induction of osteogenesis in mouse C3H10T1/2 cells assessed as induction of osteoblast specific marker alkaline phosphatase by immunofluorescence method; type: functional, cell-based
[11] = Binding affinity to yeast Ure2p; set-up: species or system Saccharomyces cerevisiae

T1 sequence (Q9WV60 whole entry): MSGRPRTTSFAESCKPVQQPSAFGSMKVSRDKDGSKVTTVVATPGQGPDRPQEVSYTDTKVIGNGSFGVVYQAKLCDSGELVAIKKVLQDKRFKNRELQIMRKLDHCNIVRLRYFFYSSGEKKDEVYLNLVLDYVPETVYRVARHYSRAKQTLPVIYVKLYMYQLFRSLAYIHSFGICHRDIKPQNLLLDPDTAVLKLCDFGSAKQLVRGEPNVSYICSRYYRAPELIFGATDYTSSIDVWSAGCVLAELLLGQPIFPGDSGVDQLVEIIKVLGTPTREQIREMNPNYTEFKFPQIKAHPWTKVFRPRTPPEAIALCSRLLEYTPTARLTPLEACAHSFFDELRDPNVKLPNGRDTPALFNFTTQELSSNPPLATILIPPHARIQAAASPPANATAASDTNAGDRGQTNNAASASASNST

EC50 [9]: 34000 nM
Compound: Nc1ccccc1NC(=O)CCCCCC(=O)Nc1cccc([C@@H]2O[C@H](CN3CCN(Cc4ccccc4)CC3)C[C@H](c3ccc(CO)cc3)O2)c1 [HISTACIN]

EC50 [10]: 1000 nM
Compound: c1ccc2c(Oc3nc(Nc4ccc(N5CCOCC5)cc4)c4ncn(C5CCCCC5)c4n3)cccc2c1 [PURMORPHAMINE]

Kd [11]: 18100 nM
Compound: NCc1ccc([C@H]2O[C@@H](CSc3nc(-c4ccccc4)c(-c4ccccc4)o3)[C@H](c3ccccc3)[C@@H](c3ccc(CO)cc3)O2)cc1 [URETUPAMINE A]

Kd [11]: 7500 nM
Compound: NCc1ccc([C@H]2O[C@@H](CSc3nc(-c4ccccc4)c(-c4ccccc4)o3)C[C@@H](c3ccc(CO)cc3)O2)cc1 [URETUPAMINE B]

Continued, molecule first:

Compound: Nc1cccc(-c2cc3c(Oc4cccc(O)c4)ncnc3[nH]2)c1
EC50 [1]: 1000 nM | IC50 [2]: 30 nM | IC50 [3]: 15000 nM | EC50 [4]: 1000 nM | Kd [5]: 126 nM | EC50 [6]: 1000 nM

Compound: COc1ccc(Nc2nccc(NCCO)n2)cc1 [CARDIOGENOL C]
EC50 [7]: 100 nM | EC50 [8]: 100 nM
